Test results published in patent US9611295B2, “Treatment of IL-17 mediated disease by blocking SEFIR-SEFIR interactions” (THE CLEVELAND CLINIC FOUNDATION, priority 2011, dated 2017).

What was measured:
[1] = target: T1, Act1-IL-17RA interaction (Homo sapiens, UniProt Q96F46); assay: Co-immunoprecipitation of Act1 and IL-17RA in transfected HeLa cells; format: cell-based, mouse Act1, human IL-17RA; details: peptides 200 μM, 24 hours
T1 construct: expressed in transfected cells; host or cells: HeLa
T1 sequence (Q96F46 33-866): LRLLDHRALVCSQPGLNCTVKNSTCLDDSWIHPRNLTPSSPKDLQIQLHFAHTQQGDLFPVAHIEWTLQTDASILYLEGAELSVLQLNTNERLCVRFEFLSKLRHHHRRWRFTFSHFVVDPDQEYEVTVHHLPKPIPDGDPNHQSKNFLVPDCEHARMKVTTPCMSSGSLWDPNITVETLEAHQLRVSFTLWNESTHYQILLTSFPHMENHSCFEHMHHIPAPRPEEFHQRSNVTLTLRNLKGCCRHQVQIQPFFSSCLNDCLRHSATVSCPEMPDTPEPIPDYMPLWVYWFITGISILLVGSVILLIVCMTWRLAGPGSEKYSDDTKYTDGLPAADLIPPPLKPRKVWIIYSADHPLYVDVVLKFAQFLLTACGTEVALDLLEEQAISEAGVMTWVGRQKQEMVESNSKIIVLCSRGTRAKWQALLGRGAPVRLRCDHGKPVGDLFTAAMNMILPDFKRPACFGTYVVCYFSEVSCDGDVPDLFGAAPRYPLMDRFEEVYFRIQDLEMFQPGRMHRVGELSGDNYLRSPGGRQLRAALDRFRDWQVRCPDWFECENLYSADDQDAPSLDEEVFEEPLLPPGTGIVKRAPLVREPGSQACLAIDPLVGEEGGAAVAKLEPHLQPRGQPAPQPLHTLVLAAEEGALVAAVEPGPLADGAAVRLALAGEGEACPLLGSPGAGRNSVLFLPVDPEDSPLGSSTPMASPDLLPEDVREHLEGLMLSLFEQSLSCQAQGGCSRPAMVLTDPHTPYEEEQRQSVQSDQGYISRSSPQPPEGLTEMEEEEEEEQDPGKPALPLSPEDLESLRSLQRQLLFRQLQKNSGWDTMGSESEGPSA
Method: (§1) FIG. 4 provides data showing that a cell-permeable CC′ loop decoy peptide disrupts the interaction between Act1 and IL-17RA and inhibits IL-17R and IL-25R signaling. FIG. 4A provides sequences of Antennapedia homeodomain (Antp) (SEQ ID NO: 11)and decoy peptides (SEQ ID NOS 23-25 and 17, respectively, in order of appearance) with the Antp sequence underlined. FIG. 4B provides flow cytometry results based on experiments in which MEFs expressing IL-17RB were incubated for 2 or 24 hours with the indicated FITC-tagged peptides (200 μM) and were then analyzed by flow cytometry. […] The percentages of FITC-positive cells in the treated samples are shown. […] FIG. 4D provides Western blot results of experiments in which MEFs expressing IL-17RB were incubated with the indicated peptides (200 μM) for 24 hours after which they were treated with IL-17 or IL-25 and then analyzed by Western blotting with the indicated antibodies. […] The abundances of Cxcl1 and Il13 mRNAs were then measured by real-time RT-PCR. […]
(§2) Decoy peptides are based on surface-exposed regions of the primary sequence of a protein to mimic a putative interaction interface. […] These decoy peptides were also tagged at their C-termini with fluorescein isothiocyanate (FITC) to enable their cell-penetrating efficiency to be evaluated by flow cytometric sanalysis. […]

[2] = tested on: IL-17-dependent signaling; assay: IL-17-dependent signaling in MEFs by Western blotting (pIκB, pJNK, pERK, pp38 MAPK); format: cell-based, mouse
Method: as §1, §2

[3] = tested on: IL-25-dependent signaling; assay: IL-25-dependent signaling in MEFs by Western blotting (pIκB, pJNK, pERK, pp38 MAPK); format: cell-based, mouse
Method: FIG. 4 provides data showing that a cell-permeable CC′ loop decoy peptide disrupts the interaction between Act1 and IL-17RA and inhibits IL-17R and IL-25R signaling. FIG. 4A provides sequences of Antennapedia homeodomain (Antp) (SEQ ID NO: 11)and decoy peptides (SEQ ID NOS 23-25 and 17, respectively, in order of appearance) with the Antp sequence underlined. FIG. 4B provides flow cytometry results based on experiments in which MEFs expressing IL-17RB were incubated for 2 or 24 hours with the indicated FITC-tagged peptides (200 μM) and were then analyzed by flow cytometry. […] The percentages of FITC-positive cells in the treated samples are shown. FIG. 4C provides Western blot results of experiments in which HeLa cells were cotransfected with plasmids encoding FLAG-tagged mAct1 and V5-tagged IL-17RA and were cultured for 24 hours, after which they were incubated for 24 hours with the indicated peptides (200 μM). IL-17RA was immunoprecipitated from the samples with antibody against the V5 tag, and samples were then subjected to Western blotting analysis with the indicated antibodies. FIG. 4D provides Western blot results of experiments in which MEFs expressing IL-17RB were incubated with the indicated peptides (200 μM) for 24 hours after which they were treated with IL-17 or IL-25 and then analyzed by Western blotting with the indicated antibodies. FIG. 4E provides bar graphs showing the results of experiments in which MEFs expressing IL-17RB were incubated with the indicated peptides (200 μM) for 24 hours, after which they were treated with IL-17 or IL-25 for 3 hours. The abundances of Cxcl1 and Il13 mRNAs were then measured by real-time RT-PCR. […]
as §2

[4] = MEFs expressing IL-17RB, peptides 200 μM, 24 hours

DRQIKIWFQNRRMKWKKLDEDEHGLHTKY [CC′ loop decoy peptide]
inhibition of the Act1-IL-17RA interaction (co-IP) [1]: more efficiently inhibited
IL-17-dependent signaling (pIκB, pJNK, pERK, pp38 MAPK) [2, 4]: partly attenuated
dose and time dependence of inhibition of IL-17-dependent signaling and gene expression ([2]; data not shown): dose-and time-dependent manner
IL-25-dependent signaling (pIκB, pJNK, pERK, pp38 MAPK) [3, 4]: partly attenuated
dose and time dependence of inhibition of IL-25-dependent signaling and gene expression ([3]; data not shown): dose-and time-dependent manner
